{
  "source": "patent US11022605B2",
  "about": "(priority 2016, dated 2021)",
  "key": {"[1]": {"settings": "in vivo; cited from earlier work"}, "colon cancer": {"system": "colon cancer", "settings": "cited from earlier work"}, "[2]": {"system": "neuromuscular junction model (motoneurons synapsed onto skeletal muscle)", "type": "cell-based"}},
  "data": [
    {"compound": "CC1(C)C(C=C(Cl)Cl)C1C(=O)OCc1cccc(Oc2ccccc2)c1", "note": "(stereo not drawn) [1R-cis-, permethrin]", "values": [
      {"measurement": "activity of stereoisomer", "setting": "[1]", "result": "active"}
    ]},
    {"compound": "CC1(C)C(C=C(Cl)Cl)C1C(=O)OCc1cccc(Oc2ccccc2)c1", "note": "(stereo not drawn) [1R-trans-, permethrin]", "values": [
      {"measurement": "activity of stereoisomer", "setting": "[1]", "result": "active"}
    ]},
    {"compound": "O=c1[nH]c(=O)n(C2CCCO2)cc1F", "note": "(stereo not drawn) [Tegafur]", "values": [
      {"measurement": "optimal uracil to Tegafur ratio for maximizing 5-FU in the tumor relative to blood", "setting": "colon cancer", "result": "4 to 1"}
    ]},
    {"compound": "CC1(C)C(C=C(Cl)Cl)C1C(=O)OCc1cccc(Oc2ccccc2)c1", "note": "(stereo not drawn) [cis-permethrin]", "values": [
      {"measurement": "toxicity relative to trans isomers", "setting": "[1]", "result": "about ten times more toxic"}
    ]},
    {"compound": "O=c1cc[nH]c(=O)[nH]1", "note": "[uracil]", "values": [
      {"measurement": "effect on toxicity of Tegafur", "setting": "colon cancer", "result": "enhances the toxicity of Tegafur"}
    ]},
    {"compound": "curare", "values": [
      {"measurement": "dip frequency sensitivity", "setting": "[2]", "result": "approximately exponential"},
      {"measurement": "effect on contractile response", "setting": "[2]", "result": "inhibitory based on concentration"},
      {"measurement": "form of fitted dose-response curve of muscle contraction", "setting": "[2]", "result": "biphasic curve"},
      {"measurement": "plateau region of biphasic curve versus stimulation frequency", "setting": "[2]", "result": "shrinks exponentially for increasing frequency"}
    ]}
  ]
}
